Source: patent publication US7273882B2, “Aminoacetamide acyl guanidines as β-secretase inhibitors” (priority 2006, dated 2007)

The compounds below were run against T1, BACE1 enzyme (Homo sapiens, UniProt P56817) (assay: Radioligand displacement (binding) assay with radiolabeled BACE inhibitor on HEK293-9B.A1 cell homogenate). Details: not given.
T1 construct: was derived from HEK293 cells; endogenous in cells; washed 48,000 x g pellet of the cell homogenate
From the text: There are a number of methods by which inhibitors of the BACE enzyme can be identified experimentally. The enzyme can be obtained from membrane samples from natural tissues or cultured cells or can be expressed recombinantly in a host cell by well known methods of molecular biology. The whole enzyme or a portion thereof can be expressed, for example, in bacterial, insect or mammalian cells to obtain a catalytically active enzyme species. The enzymatic activity and/or ligand binding capability of the enzyme can be assessed within these membrane samples, or the enzyme can be purified to varying extents. As an illustrative example, the nucleic acid sequence encoding the pro and catalytic domains of human BACE can be appended on the 5′ end with an untranslated and signal sequence from the gene for acetylcholinesterase, and on the 3′ end with a sequence encoding a poly-histidine tag. This cDNA can then be expressed in Drosophila melanogaster S2 cells in which the signal and pro sequences of the transcribed/translated protein are removed by cellular proteases and the catalytic domain, appended by a C-terminal poly-histidine tag, is secreted out into the cellular medium. The enzyme can then be purified from the culture medium by nickel affinity chromatography by methods well known to those trained in the art [Mallender, W. et al., (2001) “Characterization of recombinant, soluble beta-secretase from an insect cell expression system.” Mol. Pharmacol. 59: 619-626]. Similar strategies for expressing and purifying various forms of BACE in bacterial, mammalian and other cell types would be known to one skilled in the art., A preferred method for determining the potency of a test compound in binding to the BACE enzyme is by monitoring the displacement of a suitable radioligand.
Radioligand displacement assays with a radiolabeled BACE inhibitor (WO 2004 013098, compound 3, where the methoxy group is substituted for C(^3H)3) were carried out using standard methods (Keen, M. (1999) in Receptor Binding Techniques (Walker, J. M. ed) p. 106 Humana Press, Totowa, N.J.). The HEK293-9B.A1 cell line, which overexpresses the BACE1 enzyme, was derived from HEK293 cells (Simmons, N. L. (1990) A cultured human renal epithelioid cell line responsive to vasoactive intestinal peptide. Exp. Physiol. 75:309-19.) by RAGE™ (Harrington, J. J. et al. (2001) Creation of genome-wide protein expression libraries using random activation of gene expression. Nat. Biotechnol. 19:440-5.; U.S. Pat. Nos. 6,410,266 and 6,361,972). T225 flask cultures of HEK293-9B.A1 were grown to 80% confluency in DMEM supplemented with 2 mM L-glutamine, 10 μg/ml penicillin, 10 μg/ml streptomycin, 3 μg/ml puromycin, 100 nM methotrexate, and 10% fetal bovine serum (Invitrogen, Carlsbad, Calif.), harvested, and resuspended at 2×10^8 cells per 10 ml of lysis buffer consisting of 50 mM HEPES pH 7.0 containing a protease inhibitor cocktail of AEBSF 104 μM, aprotinin 80 nM, leupeptin 2 μM, bestatin 4 μM, pepstatin A 1.5 μM, and E-64 1.4 μM (0.1% of protease inhibitor cocktail P8340, Sigma-Aldrich, St. Louis, Mo.) at 4° C. The resuspended cells were homogenized using a Polytron (Brinkman, Westbury, N.Y.) at setting 6 for 10 sec., then centrifuged at 48,000×g for 10 min. The resulting pellet was washed by repeating the resuspension, homogenization and centrifugation steps. The final pellet was resuspended in buffer at 4° C. to yield a total protein concentration of 5 mg/ml, then aliquots were frozen in liquid nitrogen for further storage at −70° C. Immediately before carrying out a binding assay, an aliquot of cell homogenate was thawed and diluted to a concentration of 100 μg/ml in assay buffer consisting of 50 mM HEPES pH 5.0 and 0.1% CHAPSO. […]

T1 sequence (P56817 46-501): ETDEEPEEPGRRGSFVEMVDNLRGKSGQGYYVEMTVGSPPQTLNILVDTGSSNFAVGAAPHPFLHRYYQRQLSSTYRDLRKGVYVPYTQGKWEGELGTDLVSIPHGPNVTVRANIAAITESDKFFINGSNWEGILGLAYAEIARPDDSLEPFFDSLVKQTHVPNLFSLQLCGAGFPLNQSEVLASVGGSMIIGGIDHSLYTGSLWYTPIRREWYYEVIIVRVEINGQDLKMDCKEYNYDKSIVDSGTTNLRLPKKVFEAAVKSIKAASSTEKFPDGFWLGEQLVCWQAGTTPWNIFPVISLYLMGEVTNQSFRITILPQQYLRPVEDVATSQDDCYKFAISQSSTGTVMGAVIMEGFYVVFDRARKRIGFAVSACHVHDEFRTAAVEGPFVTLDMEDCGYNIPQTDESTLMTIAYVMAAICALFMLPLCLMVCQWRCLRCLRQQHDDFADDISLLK

SMILES | IC50 [µM]
Cc1noc(-c2ccccc2)c1C(=O)/N=C(\N)NCc1cc(Cl)c(N)c(Cl)c1 [Example 22] | 0.1 to 1
COc1ccc(-c2n[nH]c(C)c2C(=O)N=C(N)NCc2cc(Cl)c(N)c(Cl)c2)cc1 [Example 132] | 0.1 to 1
COc1ccc(-c2nsc(C)c2C(=O)NC(N)=NCc2cc(C)c(NC(C)=O)c(Cl)c2)cc1 [Example 144] | < 0.1
COc1ccc(-c2noc(C)c2C(=O)/N=C(/N)NCc2cc(Cl)c(N)c(Br)c2)cc1 [Example 148, N-((3-Bromo-4-amino-5-chlorobenzylamino)(amino)methylene)-3-(4-methoxyphenyl)-5-methylisoxazole-4-carboxamide] | 0.1 to 1
COc1ccc(-c2nsc(C)c2C(=O)/N=C(/N)NCc2cc(Cl)c(N)c(Cl)c2)cc1 [Example 149, N-((4-amino-3,5-dichlorobenzylamino)(amino)methylene)-3-(4-methoxyphenyl)-5-methylisothiazole-4-carboxamide] | < 0.1
COc1ccc(-c2nsc(C)c2C(=O)/N=C(/N)NCc2cc(Cl)c(N)c(Br)c2)cc1 [Example 150, N-((3-Bromo-4-amino-5-chlorobenzylamino)(amino)methylene)-3-(4-methoxyphenyl)-5-methylisothiazole-4-carboxamide] | < 0.1
COC/C=C/c1cc(Cl)cc(CN/C(N)=N/C(=O)c2c(-c3ccc(OC)cc3)noc2C)c1 [Example 152, N-((3-chloro-5-((E)-3-methoxyprop-1-enyl)benzylamino)(amino)methylene)-3-(4-methoxyphenyl)-5-methylisoxazole-4-carboxamide] | 0.1 to 1
COC/C=C/c1cc(CN/C(N)=N/C(=O)c2c(-c3ccc(OC)cc3)noc2C)cc(Cl)c1N [Example 153, N-((4-amino-3-chloro-5-((E)-3-methoxyprop-1-enyl)benzylamino) (amino)methylene)-3-(4-methoxyphenyl)-5-methylisoxazole-4-carboxamide] | < 0.1
COC/C=C/c1cc(CN/C(N)=N/C(=O)c2c(-c3ccc(OC)cc3)nsc2C)cc(Cl)c1N [Example 154, N-((4-amino-3-chloro-5-((E)-3-methoxyprop-1-enyl)benzylamino) (amino)methylene)-3-(4-methoxyphenyl)-5-methylisothiazole-4-carboxamide] | < 0.1
COc1ccc(-c2noc(C)c2C(=O)N=C(N)NCc2cc(Cl)cc(C=CCCO)c2)cc1 [Example 168] | 0.1 to 1
CCOC(=O)NCc1cc(Cl)cc(CN/C(N)=N/C(=O)c2c(-c3ccc(OC)cc3)noc2C)c1 [Example 203] | 0.1 to 1
COc1ccc(-c2nsc(C)c2C(=O)/N=C(\N)NCc2cc(Cl)cc(CNC(=O)/C=C/c3ccccc3)c2)cc1 [Example 237, N-(((E)-3-chloro-5-(cinnamamidomethyl)benzylamino)(amino)methylene)-3-(4-methoxyphenyl)-5-methylisothiazole-4-carboxamide] | < 0.1
COc1ccc(-c2nsc(C)c2C(=O)/N=C(\N)NCc2cc(Cl)c(NC(C)=O)c(Cl)c2)cc1 [Example 279, (E)-N-((4-acetamido-3,5-dichlorobenzylamino)(amino)methylene)-3-(4-methoxyphenyl)-5-methylisothiazole-4-carboxamide] | < 0.1

Same assay, conditions: radioligand displacement, HEK293-9B.A1 cell homogenate overexpressing BACE1; read-out: Activity Rating (activity based on IC50 values)

SMILES | IC50 [µM]
COc1ccc(-c2noc(C)c2C(=O)/N=C(\N)NCc2cc(Cl)c(NC(=O)CN(C)C)c(Cl)c2)cc1 [Example 280, (E)-N-((3,5-dichloro-4-(2-(dimethylamino)acetamido)benzylamino)(amino)methylene)-3-(4-methoxyphenyl)-5-methylisoxazole-4-carboxamide] | < 0.1
COc1ccc(-c2nsc(C)c2C(=O)/N=C(\N)NCc2cc(Cl)c(NC(=O)CN(C)C)c(Cl)c2)cc1 [Example 327] | < 0.1
